# Experimental data as given in patent publication US20240360166A1, “SALTS AND SOLID FORMS OF A COMPOUND HAVING GLP-1 AGONIST ACTIVITY” (Gasherbrum Bio, Inc., priority 2022, published 2024).
# “Also recorded” adds a separate entry of the source.
# Assays:
# [1] = Solid stability evaluation of free acid Form A, Na salt Form A and L-arginine salt Form A, 2 weeks (Table 5-5); type: physicochemical; details: for Form change: XRPD
# [2] = Kinetic solubility in water, pH buffers and bio-relevant media at 37° C. (Table 5-6); type: physicochemical; details: for pH: pH of solubility sample; for XRPD: residual solids
# Description: Around 10 mg material was weighed into 5 mL water, buffer solution, SGF, FaSSIF or FeSSIF^1 followed by rolling at 25 rpm at 37° C. for 0.5 and 1 h. At each time point, around 0.8 mL suspension was sampled out for centrifugation and filtration. Solids were tested by XRPD.
# [3] = Hygroscopicity, DVS evaluation of free acid Form A and re-prepared salts (Table 5-7); type: physicochemical; details: for Form change after DVS: XRPD after DVS, * converted to a potential isomorphic hydrate by XRPD
# Description: XRPD characterization was performed for the samples after DVS test.
# DVS was measured via a SMS (Surface Measurement Systems) DVS Intrinsic. The relative humidity at 25° C. were calibrated against deliquescence point of LiCl, Mg(NO3)2 and KCl.
# [4] = Dog pharmacokinetic study, Free Acid Form A, sodium salt Form A, L-arginine salt Form A in oral HPMC capsule (Table 8-5); type: in vivo; details: 2 mg/kg, male Beagle dogs
# Description: The objective of this study was to characterize the pharmacokinetics (PK) of Compound I in male Beagle dogs after oral (PO) or IV administration. […] The dose was administered orally by gavage to dogs. […] The plasma concentration of Compound I was determined by liquid chromatography with mass spectrometric detection (LC-MS/MS).
# [5] = 25° C./92.5% RH, open container, 2 weeks
# [6] = 40° C./75% RH, open container, 2 weeks
# [7] = 60° C., tight container, 2 weeks
# [8] = 50 mM acetate buffer (4.5), 0.5 h, 37° C.
# [9] = alkaline borate buffer (8), 0.5 h, 37° C.
# [10] = alkaline borate buffer (8), 1.0 h, 37° C.
substance,measurement,setting,value
"3-((1S,2S)-1-(2-((S)-3-(3-(4-(diethylphosphoryl)-3-(methylamino)phenyl)-2-oxo-2,3-dihydro-1H-imidazol-1-yl)-2-(4-fluoro-3,5-dimethylphenyl)-4-methyl-4,5,6,7-tetrahydro-2H-pyrazolo[4,3-c]pyridine-5-carbonyl)-5-(tetrahydro-2H-pyran-4-yl)-1H-indol-1-yl)-2-methylcyclopropyl)-1,2,4-oxadiazol-5(4H)-one sodium salt Form A [Compound I sodium salt Form A]",Chemical and physical stability,"[1]; 25° C./92.5% RH open, 40° C./75% RH open, 60° C. tight container, over 2 weeks, listed as Na salt Form A",chemically stable in these conditions but physically unstable at 25° C./92.5% RH and 40° C./75% RH
same,Color Change,[1]; [5],No
same,HPLC purity (%),[1]; [5],99.1%
same,HPLC purity/initial (%),[1]; [5],>100%
same,Form change,"[1]; 25° C./92.5% RH, open container, 2 weeks, * Likely isomorphic hydrate",Yes*
same,Color Change,[1]; [6],No
same,HPLC purity (%),[1]; [6],99.1%
same,HPLC purity/initial (%),[1]; [6],>100%
same,Form change,"[1]; 40° C./75% RH, open container, 2 weeks, * Likely isomorphic hydrate",Yes*
same,Color Change,[1]; [7],No
same,HPLC purity (%),[1]; [7],99.1%
same,HPLC purity/initial (%),[1]; [7],>100%
same,Form change,[1]; [7],No
same,HPLC purity (%),[1]; Initial,99.0%
same,Solubility,"[2]; 50 mM acetate buffer (4.5), 0.5 h, 37° C., LOQ = 0.500 μg/mL",<LOQ
same,pH,[2]; [8],(4.60)
same,XRPD,[2]; [8],AF^2
same,Solubility,"[2]; 50 mM acetate buffer (4.5), 1.0 h, 37° C., LOQ = 0.500 μg/mL",<LOQ
same,pH,"[2]; 50 mM acetate buffer (4.5), 1.0 h, 37° C.",(4.55)
same,Solubility,"[2]; 0.1N HCl (1.2), 0.5 h, 37° C., LOQ = 0.500 μg/mL",<LOQ
same,pH,"[2]; 0.1N HCl (1.2), 0.5 h, 37° C.",(0.95)
same,Solubility,"[2]; 0.1N HCl (1.2), 1.0 h, 37° C., LOQ = 0.500 μg/mL",<LOQ
same,pH,"[2]; 0.1N HCl (1.2), 1.0 h, 37° C.",(1.06)
same,XRPD,"[2]; 0.1N HCl (1.2), 1.0 h, 37° C.",AF^1
same,"Kinetic solubility, comparison between forms","[2]; 37° C., 0.5 and 1 h",higher than that of L-arginine salt Form A
same,Solubility,"[2]; FaSSIF (6.5), 0.5 h, 37° C.",9.1 µg/mL
same,pH,"[2]; FaSSIF (6.5), 0.5 h, 37° C.",(6.53)
same,XRPD,"[2]; FaSSIF (6.5), 0.5 h, 37° C.",AF^3
same,Solubility,"[2]; FaSSIF (6.5), 1.0 h, 37° C.",10.2 µg/mL
same,pH,"[2]; FaSSIF (6.5), 1.0 h, 37° C.",(6.60)
same,XRPD,"[2]; FaSSIF (6.5), 1.0 h, 37° C.",AF^3
same,Solubility,"[2]; FeSSIF (5.0), 0.5 h, 37° C.",42.7 µg/mL
same,pH,"[2]; FeSSIF (5.0), 0.5 h, 37° C.",(4.98)
same,Solubility,"[2]; FeSSIF (5.0), 1.0 h, 37° C.",40.9 µg/mL
same,pH,"[2]; FeSSIF (5.0), 1.0 h, 37° C.",(5.06)
same,XRPD,"[2]; FeSSIF (5.0), 1.0 h, 37° C.",AF^1
same,Solubility,"[2]; H2O, 0.5 h, 37° C.",1907.0 µg/mL
same,pH,"[2]; H2O, 0.5 h, 37° C.",(8.50)
same,Solubility,"[2]; H2O, 1.0 h, 37° C.",1742.2 µg/mL
same,pH,"[2]; H2O, 1.0 h, 37° C.",(8.34)
same,Solubility,"[2]; SGF (2.0), 0.5 h, 37° C.",14.2 µg/mL
same,pH,"[2]; SGF (2.0), 0.5 h, 37° C.",(2.13)
same,XRPD,"[2]; SGF (2.0), 0.5 h, 37° C.",AF^1
same,Solubility,"[2]; SGF (2.0), 1.0 h, 37° C.",15.8 µg/mL
same,pH,"[2]; SGF (2.0), 1.0 h, 37° C.",(2.17)
same,XRPD,"[2]; SGF (2.0), 1.0 h, 37° C.",AF^1
same,Solubility,[2]; [9],179.0 µg/mL
same,pH,[2]; [9],(7.99)
same,XRPD,[2]; [9],AF^3
same,Solubility,[2]; [10],164.2 µg/mL
same,pH,[2]; [10],(7.99)
same,XRPD,[2]; [10],AF^3
same,Disproportionation after solubility study (XRPD),[2]; solids after kinetic solubility test,disproportionation was observed
same,Water uptake (@ 25° C./40-95% RH),"[3]; DVS, 25° C., 40-95% RH",10.4%
same,Form change after DVS,[3]; listed as Compound I Na salt Form A,converted to a new form; also recorded: form change was observed
same,Form change after DVS,[3]; listed as Na salt Form A,Yes*
same,Tmax (median),[4],2.0 h
same,Tmax (range),[4],[1.0-2.0] h
same,Cmax,[4]; mean,64.1 ng/mL
same,AUClast,"[4]; mean, t = 8 h",198 h*ng/m:
